Assay results reported in patent US20250034182A1, “PHOSPHOLIPID COMPOUNDS AND METHODS OF MAKING AND USING THE SAME” (priority 2021, published 2025).

Assays:
Assay type in all cases: cell-based
[1] = tested on: Human Rhinovirus 14 (HRV14) in H1-HeLa cells; assay: H1-HeLa HRV-CTG EC50, HRV14 (Example Z); conditions: Rhinovirus B, HRV14, 96 h, MOI 1.0, 4 days, Celltiter-Glo, read-out: HRV14 HELA EC50 (nM) (per Ex. Z)
From the text: (§1) H1-Hela cell line (ATCC, Manassas, VA, Cat #CRL-1958) was maintained in Dulbecco's […] (DMEM) (Corning, New York, NY, Cat #15-018CM) supplemented with 10% fetal bovine serum (FBS) (Hyclone, Logan, UT, Cat #SH30071-03), and 1× Penicillin-Streptomycin-L-Glutamine (Coming, New York, NY, Cat #30-009-C1). Cells were passaged 2 times per week to maintain sub-confluent densities and were used for experiments at passage 5-30. The Human Rhinovirus 1B (HRV1B) (ATCC, Manassas, VA, Cat #VR-1645), Human Rhinovirus 14 (HRV14) (ATCC, Manassas, VA, Cat #VR-284), and Human Rhinovirus 16 (HRV16) (ATCC, Manassas, VA, Cat #BR-283) was obtained through ATCC. Viral infection was monitored by determining viability of H1-HeLa cells as described below.
(§2) Test molecules are prepared in 100% DMSO in 384-well polypropylene plates (Greiner, Monroe, NC, Cat #784201) with 8 compounds per plate in grouped replicates of 4 at 10 serially diluted concentrations (1:3). The serially diluted compounds were transferred to low dead volume Echo plates (Labcyte, Sunnyvale, CA, Cat #LP-0200).
(§3) The test compounds were spotted to 384-well assay plates (Greiner, Monroe, NC, Cat #781091) at 200 nL per well using an Echo acoustic dispenser (Labcyte, Sunnyvale, CA). H1-HeLa cells were harvested and suspended in DMEM (supplemented with 2% FBS and 1× Penicillin-Streptomycin-L-Glutamine) and seeded to the pre-spotted assay plates at 5,000 cells per well in 30 μL. HRV1B, HRV14, and HRV16 was diluted in DMEM (supplemented with 2% FBS and 1× Penicillin-Streptomycin-L-Glutamine) at 97.1 million Infectious Units (IU) per mL, 151 million IU per mL and 221 million IU per mL respectively. 10 μL of virus per well was added to the assay plates containing cells and compounds, for an MOI of 0.5, 1.0, and 0.25 respectively. The assay plates were incubated for 4 days at 37° C. and 5% CO2. At the end of incubation, Celltiter-Glo (Promega, Madison, WI, Cat #G7573) was prepared. The assay plates and Celltiter-Glo reagent were equilibrated to room temperature for at least 15 minutes. 40 μL per well of Celltiter-Glo reagent was added and the plates were incubated at room temperature for 15 minutes before reading the luminescence signal on an EnVision multimode plate reader (Perkin Elmer, Waltham, MA). Rupintrivir was used as positive control and DMSO was used as negative control. Values were normalized to the positive and negative controls (as 0% and 100% replication, respectively) and data was fitted using non-linear regression analysis by Gilead's dose response tool. The EC50 value for each compound was defined as the concentration reducing viral replication by 50%.

[2] = RSV NHBE CC50 384 V2 (per Ex. U); conditions: human
[3] = tested on: Human Rhinovirus 16 (HRV16) in H1-HeLa cells; assay: H1-HeLa HRV-CTG EC50, HRV16 (Example Z); conditions: Rhinovirus A, HRV16, 96 h, MOI 0.25, 4 days, Celltiter-Glo, read-out: HRV 16 HELA EC50 (nM) (per Ex. Z)
From the text: as §1, §2, §3

[4] = tested on: Respiratory syncytial virus recombinant with luciferase (RSV-Luc5) in HEp-2 cells; assay: HEp-2 RSV-Luc5 384-well assay (EC50 RSVFLUC Hep2-384 v2, Example V); conditions: human respiratory syncytial virus, HEp-2, 72 h, read-out: RSV Hep-2 FLuc EC50 (v2) (nM) (per Ex. V)
Outline: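 HEp-2 cells (4,000/well) infected with RSV-Luc5 at MOI 0.5 in DMEM/10% FBS with compound, 10-point 1:3 dilutions, 3 days at 37 °C. Replication read by One-Glo luminescence, normalized to remdesivir (0%) and DMSO (100%). EC50 from non-linear regression as concentration giving 50% reduction.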

[5] = tested on: Human Rhinovirus 1B (HRV1B) in H1-HeLa cells; assay: H1-HeLa HRV-CTG EC50, HRV1B (Example Z); conditions: Rhinovirus A, 96 h, MOI 0.5, 4 days, Celltiter-Glo, read-out: HRV 1B HELA EC50 (nM) (per Ex. Z)
From the text: as §1, §2, §3

[6] = RSV HEP2-CC50-384-V2 (per Ex. V); conditions: human

| SMILES | EC50 [1] [nM] | CC50 at 3 days [2] [nM] | EC50 [3] [nM] | EC50 [4] [nM] | EC50 [5] [nM] | CC50 at 3 days [6] [nM] |
| --- | --- | --- | --- | --- | --- | --- |
| CCCCCCCCCCCCCCCCCCOC[C@H](COP(=O)(O)OC[C@@]1(C#N)O[C@@H](c2ccc3c(N)ncnn23)[C@H](O)[C@@H]1O)OCc1cc(F)cc(C#N)c1 [Compound 1, ((2R,3S,4R,5S)-5-(4-aminopyrrolo[2,1-f][1,2,4]triazin-7-yl)-2-cyano-3,4-dihydroxytetrahydrofuran-2-yl)methyl ((R)-2-((3-cyano-5-fluorobenzyl)oxy)-3-(octadecyloxy)propyl) hydrogen phosphate] | 8 | 2400 | 8 | 229 | 4 | > 31200 |
| CCCCCCCCCCCCCCCCCCOC[C@H](COP(=O)(O)OC[C@@]1(C#N)O[C@@H](c2ccc3c(N)ncnn23)[C@H](O)[C@@H]1O)OCc1ccc(C#N)c(Cl)c1 [Compound 7, ((2R,3S,4R,5S)-5-(4-aminopyrrolo[2,1-f][1,2,4]triazin-7-yl)-2-cyano-3,4-dihydroxytetrahydrofuran-2-yl)methyl ((R)-2-((3-chloro-4-cyanobenzyl)oxy)-3-(octadecyloxy)propyl) hydrogen phosphate] | 50 | 5960 | 40 | 284 | 38 | > 49900 |
| CCCCCCCCCCCCCCCCCCOC[C@H](COP(=O)(O)OC[C@@]1(C#N)O[C@@H](c2ccc3c(N)ncnn23)[C@H](O)[C@@H]1O)OCc1ccc(C#N)c(-n2cncn2)c1 [Compound 16, ((2R,3S,4R,5S)-5-(4-aminopyrrolo[2,1-f][1,2,4]triazin-7-yl)-2-cyano-3,4-dihydroxytetrahydrofuran-2-yl)methyl ((R)-2-((4-cyano-3-(1H-1,2,4-triazol-1-yl)benzyl)oxy)-3-(octadecyloxy)propyl) hydrogen phosphate] | 11 | 4610 | 10 | 36 | 5 | > 41500 |
| CCCCCCCCCCCCCCCCCCOC[C@H](COP(=O)(O)OC[C@@]1(C#N)O[C@@H](c2ccc3c(N)ncnn23)[C@H](O)[C@@H]1O)OCc1ccc(C#N)nc1 [Compound 19, ((2R,3S,4R,5S)-5-(4-aminopyrrolo[2,1-f][1,2,4]triazin-7-yl)-2-cyano-3,4-dihydroxytetrahydrofuran-2-yl)methyl ((R)-2-((6-cyanopyridin-3-yl)methoxy)-3-(octadecyloxy)propyl) hydrogen phosphate] |  |  |  | 60 |  | 46400 |
| CCCCCCCCCCCCCCCCCCOC[C@H](COP(=O)(O)OC[C@@]1(C#N)O[C@@H](c2ccc3c(N)ncnn23)[C@H](O)[C@@H]1O)Oc1cccc(C#N)n1 [Compound 21, ((2R,3S,4R,5S)-5-(4-aminopyrrolo[2,1-f][1,2,4]triazin-7-yl)-2-cyano-3,4-dihydroxytetrahydrofuran-2-yl)methyl ((R)-2-((6-cyanopyridin-2-yl)oxy)-3-(octadecyloxy)propyl) hydrogen phosphate] | 60 | 3350 | 50 | 222 | 35 | 39700 |
| CCCCCCCCCCCCCCCCCCOC[C@H](COP(=O)(O)OC[C@@]1(C#N)O[C@@H](c2ccc3c(N)ncnn23)[C@H](O)[C@@H]1O)Oc1ccc(C#N)c(OC(C)C)c1 [Compound 23, ((2R,3S,4R,5S)-5-(4-aminopyrrolo[2,1-f][1,2,4]triazin-7-yl)-2-cyano-3,4-dihydroxytetrahydrofuran-2-yl)methyl ((R)-2-(4-cyano-3-isopropoxyphenoxy)-3-(octadecyloxy)propyl) hydrogen phosphate] | 9 | 5400 | 7 | 71 | 4 | > 42000 |
| CCCCCCCCCCCCCCCCCCC[C@H](COP(=O)(O)OC[C@@]1(C#N)O[C@@H](c2ccc3c(N)ncnn23)[C@H](O)[C@@H]1O)OCc1cc(F)cc(C#N)c1 [Compound 25, ((2R,3S,4R,5S)-5-(4-aminopyrrolo[2,1-f][1,2,4]triazin-7-yl)-2-cyano-3,4-dihydroxytetrahydrofuran-2-yl)methyl ((R)-2-((3-cyano-5-fluorobenzyl)oxy)henicosyl) hydrogen phosphate] | 103 | 31000 | 99 | 2920 | 45 | > 50000 |
| CCCCCCCCCCCCCCCCC[C@H](COP(=O)(O)OC[C@@]1(C#N)O[C@@H](c2ccc3c(N)ncnn23)[C@H](O)[C@@H]1O)OCc1cc(Cl)cc(C#N)c1 [Compound 76, ((2R,3S,4R)-5-(4-aminopyrrolo[2,1-f][1,2,4]triazin-7-yl)-2-cyano-3,4-dihydroxytetrahydrofuran-2-yl)methyl ((R)-2-((3-chloro-5-cyanobenzyl)oxy)nonadecyl) hydrogen phosphate] |  | 3550 |  | 382 |  | 33700 |
| CCCCCCCCCCCCCCCCCC[C@H](COP(=O)(O)OC[C@@]1(C#N)O[C@@H](c2ccc3c(N)ncnn23)[C@H](O)[C@@H]1O)OCc1cc(Cl)cc(C#N)c1 [Compound 81, ((2R,3S,4R,5S)-5-(4-aminopyrrolo[2,1-f][1,2,4]triazin-7-yl)-2-cyano-3,4-dihydroxytetrahydrofuran-2-yl)methyl ((R)-2-((3-chloro-5-cyanobenzyl)oxy)icosyl) hydrogen phosphate] |  | 2480 |  | 445 |  | 23000 |
| CCCCCCCCCCCCCCCCCCC[C@H](COP(=O)(O)OC[C@@]1(C#N)O[C@@H](c2ccc3c(N)ncnn23)[C@H](O)[C@@H]1O)OCc1cc(Cl)cc(C#N)c1 [Compound 82, ((2R,3S,4R,5S)-5-(4-aminopyrrolo[2,1-f][1,2,4]triazin-7-yl)-2-cyano-3,4-dihydroxytetrahydrofuran-2-yl)methyl ((R)-2-((3-chloro-5-cyanobenzyl)oxy)henicosyl) hydrogen phosphate] |  | 6120 |  | 1250 |  | 29000 |
| CCCCCCCCCCCCCCCCCC[C@H](COP(=O)(O)OC[C@@]1(C#N)O[C@@H](c2ccc3c(N)ncnn23)[C@H](O)[C@@H]1O)OCc1cc(F)cc(C#N)c1 [Compound 84, ((2R,3S,4R,5S)-5-(4-aminopyrrolo[2,1-f][1,2,4]triazin-7-yl)-2-cyano-3,4-dihydroxytetrahydrofuran-2-yl)methyl ((R)-2-((3-cyano-5-fluorobenzyl)oxy)icosyl) hydrogen phosphate] |  | 24500 |  | 325 |  | > 50000 |
| CCCCCCCCCCCCCCCCOC[C@@H](COP(=O)(O)OC[C@@]1(C#N)O[C@@H](c2ccc3c(N)ncnn23)[C@H](O)[C@@H]1O)OCc1cc(F)cc(C#N)c1 [Compound 88, ((2R,3S,4R,5S)-5-(4-aminopyrrolo[2,1-f][1,2,4]triazin-7-yl)-2-cyano-3,4-dihydroxytetrahydrofuran-2-yl)methyl ((S)-2-((3-cyano-5-fluorobenzyl)oxy)-3-(hexadecyloxy)propyl) hydrogen phosphate] |  | 7530 |  | 191 |  | 36600 |
